Data on 22 compounds can be found in ChEMBL document CHEMBL4020750 (Bioorg Med Chem Lett, 2017).

Usually IC50 stands for the concentration needed to halve the response being measured. What is called CC50 is the concentration that lowers cell viability or growth by half. Broadly, the AUC is the area under the concentration-time curve, a measure of exposure. The term Cmax denotes the peak of the concentration-time curve.

SMILES strings stand for the structures. A value given as a limit tells only on which side of the number the result lay.

For one series, the system named is Trypanosoma brucei. Description: Antitrypanosomal activity against Trypanosoma brucei 427 bloodstream forms after 48 hrs by alamar blue assay. The following applies: Trypanosoma brucei, 427, 48 h. The series is classed as functional. (Alamar Blue is a resazurin reagent that responds to reducing activity.)
Series [1] can be described thus: Inhibition of Trypanosoma brucei methionyl tRNA synthetase using L-methionine as substrate preincubated for 15 mins followed by substrate addition measured after 120 mins in presence of ATP by Kinase Glo chemiluminescence assay. (Kinase-Glo reads ATP consumption through a luciferase reaction.)
Series [2] can be described thus: Cytotoxicity against human CRL8155 cells after 48 hrs by alamar blue assay. The note with it: crl8155, 48 h. Type of series: cell-based.
The subject of the next series is HepG2. Description: Cytotoxicity against human HepG2 cells after 48 hrs by alamar blue assay. The note with it: hepg2, 48 h. The series is classed as cell-based.
Series [3] can be described thus: AUC in mouse at 50 mg/kg, administered through oral gavage by LC-MS analysis. The series is classed as ADME, organism-based. The following applies: in vivo.
A short description of series [4]: Cmax in mouse at 50 mg/kg, administered through oral gavage by LC-MS analysis. Type of series: ADME, organism-based. More on the design: dose 50 mg/kg, route oral. The following applies: in vivo.

For the compound `COC(=O)C(NCCN(C)c1nc2nc(Cl)ccc2[nH]1)c1cc(Cl)cc(Cl)c1` (configuration not stated), the EC50 with Trypanosoma brucei (read-out: EC50) came out at 5270 nM. Also, the IC50 in series [1] worked out at 86 nM.

Take `CCOc1c(Br)cc(Cl)cc1CN[C@H]1CCCN(c2nc3nc(Cl)ccc3[nH]2)C1`: the EC50 in the series on Trypanosoma brucei (read-out: EC50) amounted to 230 nM. For the same compound, in series [1], the IC50 is below 50 nM.

Consider `Clc1cc(Br)cc(CN[C@H]2CCCN(c3nc4nc(Cl)ccc4[nH]3)C2)c1`, for which the CC50 is 43000 nM in series [2] and above 50000 nM in the series on HepG2. For the same compound, the EC50 is 71 nM in the series with Trypanosoma brucei (read-out: EC50) and 63.1 nM in the series with Trypanosoma brucei (read-out: pEC50 (converted)). In addition, the AUC in series [3] is 78.1 µM·h. Further, the concentration in series [4] peaked (Cmax) at 19.2 µM. Besides, in series [1], the IC50 was below 50 nM.

As for `CCCOc1c(Cl)cc(Cl)cc1CN[C@H]1CCCN(c2nc3nc(Cl)ccc3[nH]2)C1`, the EC50 in the series on Trypanosoma brucei (read-out: EC50) amounted to 827 nM. Besides, in series [1], the IC50 was below 50 nM.

As to `C=CCOc1c(Cl)cc(Cl)cc1CN[C@H]1CCCN(c2nc3nc(Cl)ccc3[nH]2)C1`, the EC50 in the series on Trypanosoma brucei (read-out: EC50) was 326 nM. For the same compound, in series [1], the IC50 was below 50 nM.

Turning to `Clc1cc(Cl)c(OCC2CC2)c(CN[C@H]2CCCN(c3nc4nc(Cl)ccc4[nH]3)C2)c1`, the EC50 in the series with Trypanosoma brucei (read-out: EC50) came out at 511 nM. For the same compound, in series [1], the IC50 was below 50 nM.

Consider `Clc1cc(Cl)c2c(c1)C(N[C@H]1CCCN(c3nc4nc(Cl)ccc4[nH]3)C1)CCN2` (some centres not stated), for which the CC50 is 19000 nM in series [2] and 40200 nM in the series with HepG2. The EC50 was 57 nM with Trypanosoma brucei (read-out: EC50) and 50.1 nM in the series with Trypanosoma brucei (read-out: pEC50 (converted)). The same compound gave an AUC in series [3] of 15.8 µM·h. In series [4], this compound displayed a Cmax of 14.7 µM. The IC50 in series [1] amounted to 89 nM.

Regarding `CN(CCNC(C(N)=O)c1cc(Cl)cc(Cl)c1)c1nc2nc(Cl)ccc2[nH]1` (configuration not stated), in the series with Trypanosoma brucei (read-out: EC50), the EC50 was 4490 nM. In addition, in series [1], the IC50 worked out at 75 nM.

As for `COc1c(Cl)cc(Cl)cc1CN[C@H]1CCCN(c2nc3nc(Cl)ccc3[nH]2)C1`, the EC50 in the series on Trypanosoma brucei (read-out: EC50) amounted to 357 nM. In addition, in series [1], the IC50 was below 50 nM.

`CCNc1c(Cl)cc(Cl)cc1CN[C@H]1CCCN(c2nc3nc(Cl)ccc3[nH]2)C1`: the EC50 with Trypanosoma brucei (read-out: EC50) amounted to 359 nM. Moreover, the IC50 in series [1] was below 50 nM.

Take `N#Cc1cc(Cl)cc(CN[C@H]2CCCN(c3nc4nc(Cl)ccc4[nH]3)C2)c1`: the EC50 in the series on Trypanosoma brucei (read-out: EC50) came to 111 nM. For the same compound, the IC50 in series [1] is below 50 nM.

With `COc1c(Br)cc(Br)cc1CN[C@H]1CCCN(c2nc3nc(Cl)ccc3[nH]2)C1`, the EC50 in the series on Trypanosoma brucei (read-out: EC50) was determined as 334 nM. Further, the IC50 in series [1] was below 50 nM.

Take `CCOc1c(Cl)cc(Cl)cc1CNCCN(C)c1nc2nc(Cl)ccc2[nH]1`: the EC50 in the series with Trypanosoma brucei (read-out: EC50) was 314 nM. In addition, in series [1], the IC50 was below 50 nM.

For `CN(CCN[C@@H]1CCNc2c(Cl)cc(Cl)cc21)c1nc2nc(Cl)ccc2[nH]1`, the CC50 in series [2] amounted to 18500 nM; with HepG2, 30600 nM. In addition, the results for the EC50 in the series with Trypanosoma brucei (read-out: EC50) and with Trypanosoma brucei (read-out: pEC50 (converted)) were 4 nM and 3.98 nM, respectively. This compound also showed an AUC in series [3] of 2.33 µM·h. The compound further registered a Cmax in series [4] of 1.3 µM. Besides, the IC50 in series [1] was below 50 nM.

As to `Clc1cc(Cl)c(Cl)c(CN[C@H]2CCCN(c3nc4nc(Cl)ccc4[nH]3)C2)c1`, the EC50 with Trypanosoma brucei (read-out: EC50) was 354 nM. Further, in series [1], the IC50 is below 50 nM.

As to `CN(CCNC(CO)c1cc(Cl)cc(Cl)c1)c1nc2nc(Cl)ccc2[nH]1` (configuration not stated), the EC50 with Trypanosoma brucei (read-out: EC50) was 995 nM. Moreover, the IC50 in series [1] was 101 nM.

On to `Clc1ccc2nc(N3CCC[C@H](NCc4cc(Br)cc(Br)c4)C3)[nH]c2n1`, for which the CC50 in series [2] came to 47600 nM; in the series with HepG2, 39100 nM. The EC50 in the series with Trypanosoma brucei (read-out: EC50) is 85 nM; with Trypanosoma brucei (read-out: pEC50 (converted)) it was 79.4 nM. Besides, the IC50 in series [1] was below 50 nM.

As to `Clc1cc(Cl)c(OC2CC2)c(CN[C@H]2CCCN(c3nc4nc(Cl)ccc4[nH]3)C2)c1`, the EC50 in the series with Trypanosoma brucei (read-out: EC50) worked out at 3120 nM. The IC50 in series [1] amounted to 389 nM.

Regarding `CCOc1c(Cl)cc(Cl)cc1CN[C@H]1CCCN(c2nc3nc(Cl)ccc3[nH]2)C1`, in the series on Trypanosoma brucei (read-out: EC50), the EC50 was found to be 111 nM. Moreover, in series [1], the IC50 is below 50 nM.

Take `CCOc1c(Br)cc(Br)cc1CN[C@H]1CCCN(c2nc3nc(Cl)ccc3[nH]2)C1`: the values for the CC50 (in series [2]; in the series on HepG2) were 10500 nM and 18700 nM, respectively. The EC50 in the series with Trypanosoma brucei (read-out: EC50) was 40 nM; in the series on Trypanosoma brucei (read-out: pEC50 (converted)), 39.8 nM. For the same compound, the AUC in series [3] is 3.03 µM·h. Moreover, the Cmax in series [4] came out at 2.1 µM. In addition, the IC50 in series [1] was below 50 nM.

As to `Oc1c(Cl)cc(Cl)cc1CN[C@H]1CCCN(c2nc3nc(Cl)ccc3[nH]2)C1`, in the series with Trypanosoma brucei (read-out: EC50), the EC50 is 241 nM. Besides, the IC50 in series [1] was below 50 nM.

As for `CC(C)Oc1c(Cl)cc(Cl)cc1CN[C@H]1CCCN(c2nc3nc(Cl)ccc3[nH]2)C1`, the EC50 with Trypanosoma brucei (read-out: EC50) amounted to 1700 nM. In series [1], the IC50 came to 305 nM.
